In ChEMBL document CHEMBL4837189, “Opportunities and Limitations for Assigning Relative Configurations of Antibacterial Bislactones using GIAO NMR Shift Calculations” (J Nat Prod, 2021):
≈ marks a conversion by molar mass, not a printed value.

What was measured:
Bacillus anthracis = assay: Antimicrobial activity against Bacillus anthracis assessed as microbial growth inhibition by CLSI-protocol based broth microdilution assay; format: functional
Staphylococcus aureus [1] = assay: Antimicrobial activity against methicillin-resistant Staphylococcus aureus assessed as microbial growth inhibition by CLSI-protocol based broth microdilution assay; format: functional
Staphylococcus aureus [2] = assay: Antimicrobial activity against Staphylococcus aureus assessed as microbial growth inhibition by CLSI-protocol based broth microdilution assay; format: functional
Escherichia coli = assay: Antimicrobial activity against Escherichia coli assessed as microbial growth inhibition by CLSI-protocol based broth microdilution assay; format: functional
Pseudomonas aeruginosa = assay: Antimicrobial activity against Pseudomonas aeruginosa assessed as microbial growth inhibition by CLSI-protocol based broth microdilution assay; format: functional
MDA-MB-231 = assay: Cytotoxicty against human MDA-MB-231 cells assessed as reduction in cell viability at > 25 uM measured after 72 hrs by CellTiter-Blue cell viability assay; format: cell-based; details: mda-mb-231, 72 h
OVCAR-3 = assay: Cytotoxicty against human OVCAR-3 cells assessed as reduction in cell viability at > 25 uM measured after 72 hrs by CellTiter-Blue cell viability assay; format: cell-based; details: ovcar-3, 72 h
MDA-MB-435 = assay: Cytotoxicty against human MDA-MB-435 cells assessed as reduction in cell viability at > 25 uM measured after 72 hrs by CellTiter-Blue cell viability assay; format: cell-based; details: mda-mb-435, 72 h

## CC1OC(=O)/C=C/[C@@H](O)CC[C@H](C)OC(=O)CCC1=O (stereo partly drawn)
Bacillus anthracis
  MIC: 62.5 µg/mL (≈ 220 µM)
Staphylococcus aureus [1]
  MIC: 125 µg/mL (≈ 440 µM)
Staphylococcus aureus [2]
  MIC: 1 µg/mL (≈ 3.52 µM)
Escherichia coli
  MIC: 125 µg/mL (≈ 440 µM)
Pseudomonas aeruginosa
  MIC: 125 µg/mL (≈ 440 µM)
MDA-MB-231
  Activity: Non-Toxic
OVCAR-3
  Activity: Non-Toxic
MDA-MB-435
  Activity: Non-Toxic

## C[C@@H]1OC(=O)/C=C/[C@@H](O)CC[C@H](C)OC(=O)CC[C@@H]1O
Bacillus anthracis
  MIC: 125 µg/mL (≈ 437 µM)
Staphylococcus aureus [1]
  MIC: 125 µg/mL (≈ 437 µM)
Staphylococcus aureus [2]
  MIC: 4 µg/mL (≈ 14 µM)
Escherichia coli
  MIC: 125 µg/mL (≈ 437 µM)
Pseudomonas aeruginosa
  MIC: 125 µg/mL (≈ 437 µM)

## CC(=C\C(=O)O)/C=C(\C)C[C@H](C)CCCC[C@H]1OC(=O)[C@@H]1CO [ANTIBIOTIC 1233A]
Bacillus anthracis
  MIC: > 250 µg/mL
Staphylococcus aureus [1]
  MIC: 125 µg/mL (≈ 385 µM)
Staphylococcus aureus [2]
  MIC: 125 µg/mL (≈ 385 µM)
Escherichia coli
  MIC: > 250 µg/mL
Pseudomonas aeruginosa
  MIC: 125 µg/mL (≈ 385 µM)

## CC[C@H]1OC(=O)[C@H](C)[C@@H](O[C@H]2C[C@@](C)(OC)[C@@H](O)[C@H](C)O2)[C@H](C)[C@@H](O[C@@H]2O[C@H](C)C[C@H](N(C)C)[C@H]2O)[C@](C)(OC)C[C@@H](C)C(=O)[C@H](C)[C@@H](O)[C@]1(C)O [CLARITHROMYCIN]
Bacillus anthracis
  MIC: 0.25 µg/mL (≈ 0.334 µM)
Staphylococcus aureus [1]
  MIC: > 250 µg/mL
Staphylococcus aureus [2]
  MIC: 0.25 µg/mL (≈ 0.334 µM)
Escherichia coli
  MIC: 16 µg/mL (≈ 21.4 µM)
Pseudomonas aeruginosa
  MIC: 125 µg/mL (≈ 167 µM)

## CC[C@H]1OC(=O)[C@H](C)[C@@H](O[C@H]2C[C@@](C)(OC)[C@@H](O)[C@H](C)O2)[C@H](C)[C@@H](O[C@@H]2O[C@H](C)C[C@H](N(C)C)[C@H]2O)[C@](C)(O)C[C@@H](C)C(=O)[C@H](C)[C@@H](O)[C@]1(C)O [ERYTHROMYCIN]
Bacillus anthracis
  MIC: 0.25 µg/mL (≈ 0.341 µM)
Staphylococcus aureus [1]
  MIC: 0.25 µg/mL (≈ 0.341 µM)
Staphylococcus aureus [2]
  MIC: 0.5 µg/mL (≈ 0.681 µM)
Escherichia coli
  MIC: 16 µg/mL (≈ 21.8 µM)
Pseudomonas aeruginosa
  MIC: 62.5 µg/mL (≈ 85.2 µM)

## CC1(C)S[C@@H]2[C@H](NC(=O)Cc3ccccc3)C(=O)N2[C@H]1C(=O)O [PENICILLIN G]
Bacillus anthracis
  MIC: 0.25 µg/mL (≈ 0.748 µM)
Staphylococcus aureus [1]
  MIC: 0.5 µg/mL (≈ 1.5 µM)
Staphylococcus aureus [2]
  MIC: 0.25 µg/mL (≈ 0.748 µM)
Escherichia coli
  MIC: 16 µg/mL (≈ 47.8 µM)
Pseudomonas aeruginosa
  MIC: > 250 µg/mL

## CO[C@H]1/C=C/O[C@@]2(C)Oc3c(C)c(O)c4c(O)c(c(/C=N/N5CCN(C)CC5)c(O)c4c3C2=O)NC(=O)/C(C)=C\C=C\[C@H](C)[C@H](O)[C@@H](C)[C@@H](O)[C@@H](C)[C@H](OC(C)=O)[C@@H]1C [RIFAMPIN]
Bacillus anthracis
  MIC: 0.25 µg/mL (≈ 0.304 µM)
Staphylococcus aureus [1]
  MIC: 0.25 µg/mL (≈ 0.304 µM)
Staphylococcus aureus [2]
  MIC: 0.25 µg/mL (≈ 0.304 µM)
Escherichia coli
  MIC: 4 µg/mL (≈ 4.86 µM)
Pseudomonas aeruginosa
  MIC: 62.5 µg/mL (≈ 75.9 µM)

## CN[C@@H]1[C@H](O[C@H]2[C@H](O[C@H]3[C@H](O)[C@@H](O)[C@H](N=C(N)N)[C@@H](O)[C@@H]3N=C(N)N)O[C@@H](C)[C@]2(O)C=O)O[C@@H](CO)[C@H](O)[C@H]1O [STREPTOMYCIN]
Bacillus anthracis
  MIC: 0.25 µg/mL (≈ 0.43 µM)
Staphylococcus aureus [1]
  MIC: 0.25 µg/mL (≈ 0.43 µM)
Staphylococcus aureus [2]
  MIC: 0.25 µg/mL (≈ 0.43 µM)
Escherichia coli
  MIC: 0.25 µg/mL (≈ 0.43 µM)
Pseudomonas aeruginosa
  MIC: 1 µg/mL (≈ 1.72 µM)
